Source: patent US10495796B2, “Near-infrared cut filter” (AGC INC., priority 2012, dated 2019)

Key:
[1] = Solubility of dye to organic solvent; type: physicochemical; conditions: 50° C., mass % of the dye to the mass of the entire solution; for Solubility to organic solvent: MIBK: methyl isobutyl ketone
Method: Regarding the dyes (A11-1) to (A11-10) and (A11-20) to (A11-27) obtained above, solubility to organic solvent was evaluated as follows.
Three kinds of solvents, cyclohexanone, methyl isobutyl ketone (MIBK), toluene, were used as the organic solvent in the solubility test. Note that in Table 3, % is mass % of the dye to the mass of the entire solution. Further, the temperature of each organic solvent in the solubility test was 50° C.

[2] = Absorption characteristics: transmission spectrum of near-infrared absorbing layer of NIR filter (UV-visible spectrophotometer); type: physicochemical
Method: Further, the transmittance of the near-infrared absorbing layer can be measured by using an ultraviolet visible light spectrophotometer. For example, when the near-infrared absorbing layer is provided on a glass substrate, the transmittance is calculated by subtracting the transmittance of only the glass substrate. Note that the transmittance of light of the near-infrared absorbing layer refers to, unless otherwise stated, a ratio to light incident from a direction orthogonal to a main surface of a sample, the ratio of this light traveling straight inside the sample and transmitted to an opposite side. Further, when the transmittance is measured by making light incident from a direction other than the direction orthogonal to the main surface of the sample in the measurement of transmittance of light, an angle made by a straight line indicating the direction of the incident light to a line orthogonal to the main surface is called an incident angle.
In the condition (ii-3), the value calculated by nd(B)×(λa−λc) (hereinafter, this value may also be described as “Is value”) is a value to be an index indicating steepness of the absorption curve in the vicinity of the boundary between the visible light region and the near-infrared region with respect to a transmission spectrum of the near-infrared absorbing layer. When this value is 115 or less, the absorption curve in the vicinity of the boundary between the visible light region and the near-infrared region is steep with respect to the near-infrared absorbing layer, which can be said as preferable for the NIR filter.
That is, with respect to the transmission spectrum of the near-infrared absorbing layer, the smaller the difference (λa−λc) between the shortest wavelength λa with transmittance of 1% in the region of 650 nm to 800 nm and the wavelength λc with transmittance of 70% on a shorter wavelength side than the λa, the steeper the absorption curve in the vicinity of the boundary between the visible light region and the near-infrared region. Here, λa−λc also depends on a wavelength width having transmittance of 1% or less (λb−λa; λb is the longest wavelength with transmittance of 1% in the wavelength region of 650 nm to 800 nm). Accordingly, in order to compare and evaluate the steepness of the absorption curve in the above region of the transmission spectrum of the near-infrared absorbing layer, λb−λa is fixed to 30 nm. That is, λb−λa of the near-infrared absorbing layer which the present filter has is not limited to 30 nm.
Further, in the Is value, (λa−λc) is multiplied by the refractive index nd(B) of the transparent resin (B) contained in the near-infrared absorbing layer as a coefficient. This is to standardize the difference in steepness among resins.
Regarding transmittance (%/nm) of the NIR filters 1 to 109 obtained above, transmission spectra were measured and calculated by using an ultraviolet visible light spectrophotometer (U-4100 type spectrophotometer made by Hitachi High-Technologies Corporation). Analysis results of transmission spectra of the near-infrared absorbing layers which the NIR filters have are presented in Table 4, Table 5 and Table 6 for the NIR filters 1 to 25, 26 to 51, 52 to 75, respectively, and are presented in Table 7 and Table 8 for the NIR filters 76 to 94, 95 to 109, respectively. In Table 4 to Table 8, the ratios (parts by mass) of dyes to 100 parts by mass of the transparent resin (B) and film thicknesses of the near-infrared absorbing layers are described together.
Further, conditions of preferred transmission spectra of the near-infrared absorbing layers in the present filter and Is values obtained by the formula: nd(B)×(λa-λc) described in above (ii-3) are described in Table 4 to Table 8 together with λa in the condition (ii-1) and λb-λa in the condition (ii-2). Note that values described in Table 4 to Table 8 are values obtained by subtracting transmittance of a glass plate from transmittance of an NIR filter. […]

[3] = transparent resin acrylic resin BR50, nd(B) 1.56, film thickness 2.3 μm
[4] = transparent resin polycarbonate EP5000, nd(B) 1.63, film thickness 2.4 μm
[5] = transparent resin polycarbonate SP3810, nd(B) 1.63, film thickness 1.0 μm
[6] = transparent resin polycarbonate SP3810, nd(B) 1.63, film thickness 2.8 μm

SMILES | Solubility to organic solvent: Cyclohexanone [1] | Solubility to organic solvent: MIBK [1] | Solubility to organic solvent: Toluene [1] | 430 nm to 600 nm Average transmittance [2, 3] [%] | Is value (nd(B)×(λa-λc)) [2, 3] | λa [2, 3] [nm] | λa − λc [2, 3] [nm] | λb [2, 3] [nm] | λb − λa [2, 3] [nm] | λc [2, 3] [nm] | λmax [2, 3] [nm] | 430 nm to 600 nm Average transmittance [2, 4] [%] | Is value (nd(B)×(λa-λc)) [2, 4] | λa [2, 4] [nm] | λa − λc [2, 4] [nm] | λb [2, 4] [nm] | λb − λa [2, 4] [nm] | λc [2, 4] [nm] | λmax [2, 4] [nm] | 430 nm to 600 nm Average transmittance [2, 5] [%] | other results
CCCCC(CC)C(=O)Nc1cc2c(cc1C1=C([O-])C(=c3cc4c(cc3NC(=O)C(CC)CCCC)=[N+](C)C(C)C4(C)C)C1=O)C(C)(C)C(C)N2C (stereo not drawn) [Example A11-2] | 10%< mass % | 10%< mass % | 5.00% mass % | 95 | 112.4 | 689 | 72 | 719 | 30 | 617 | 706 | 96.2 | 112.6 | 694 | 69 | 724 | 30 | 625 | 711 | 96.1 | Is value (nd(B)×(λa-λc)) [2, 5]: 114.4; λa [2, 5]: 694 nm; λa − λc [2, 5]: 70 nm; λb [2, 5]: 724 nm; λb − λa [2, 5]: 30 nm; λc [2, 5]: 624 nm; λmax [2, 5]: 706 nm; 430 nm to 600 nm Average transmittance [2, 6]: 95.5%; Is value (nd(B)×(λa-λc)) [2, 6]: 112.8; λa [2, 6]: 694 nm; λa − λc [2, 6]: 69 nm; λb [2, 6]: 724 nm; λb − λa [2, 6]: 30 nm; λc [2, 6]: 625 nm; λmax [2, 6]: 710 nm
CC(CCC(C(=O)Nc1cc2c(cc1C1=C([O-])C(=c3cc4c(cc3NC(=O)C(CCC(C)CC(C)(C)C)C(C)CC(C)(C)C)=[N+](C)C(C)C4(C)C)C1=O)C(C)(C)C(C)N2C)C(C)CC(C)(C)C)CC(C)(C)C (stereo not drawn) [Example A11-4] | 10%< mass % | 10%< mass % | 10%< mass % | 95 | 110.9 | 688 | 71 | 718 | 30 | 617 | 705 | 95.7 | 112.6 | 693 | 69 | 723 | 30 | 624 | 709 | 96.8 | Is value (nd(B)×(λa-λc)) [2, 5]: 112.8; λa [2, 5]: 693 nm; λa − λc [2, 5]: 69 nm; λb [2, 5]: 723 nm; λb − λa [2, 5]: 30 nm; λc [2, 5]: 624 nm; λmax [2, 5]: 705 nm; 430 nm to 600 nm Average transmittance [2, 6]: 95.9%; Is value (nd(B)×(λa-λc)) [2, 6]: 111.2; λa [2, 6]: 693 nm; λa − λc [2, 6]: 68 nm; λb [2, 6]: 723 nm; λb − λa [2, 6]: 30 nm; λc [2, 6]: 625 nm; λmax [2, 6]: 709 nm
CCCCCCCC(=O)Nc1cc2c(cc1C1=C([O-])C(=c3cc4c(cc3NC(=O)CCCCCCC)=[N+](C)C(C)C4(C)C)C1=O)C(C)(C)C(C)N2C (stereo not drawn) [Example A11-24, reference compound] | 5.00% mass % | 1.00% mass % | 5.00% mass % | 93.7 | 132.7 | 688 | 85 | 718 | 30 | 603 | 705 | 95.9 | 120.8 | 694 | 69 | 724 | 30 | 620 | 710 | 95.2 | Is value (nd(B)×(λa-λc)) [2, 5]: 122.6; λa [2, 5]: 693 nm; λa − λc [2, 5]: 75 nm; λb [2, 5]: 723 nm; λb − λa [2, 5]: 30 nm; λc [2, 5]: 618 nm; λmax [2, 5]: 710 nm; 430 nm to 600 nm Average transmittance [2, 6]: 95.4%; Is value (nd(B)×(λa-λc)) [2, 6]: 119.3; λa [2, 6]: 694 nm; λa − λc [2, 6]: 73 nm; λb [2, 6]: 724 nm; λb − λa [2, 6]: 30 nm; λc [2, 6]: 621 nm; λmax [2, 6]: 710 nm
